The test system of one assay is Lemna. The following applies: cited from earlier work.
The next assay relates to albino psdl mutant. The following applies: transferred to MS2 medium supplemented with OHPP or HGA; cited from earlier work.
The target of a further assay is T1, Arabidopsis HPPD (Arabidopsis thaliana, UniProt P93836).
T1 construct: made in house; host or cells: E. coli (pKK233-2, trc promoter); desalted lysate supernatant
T1 sequence (P93836 1-445): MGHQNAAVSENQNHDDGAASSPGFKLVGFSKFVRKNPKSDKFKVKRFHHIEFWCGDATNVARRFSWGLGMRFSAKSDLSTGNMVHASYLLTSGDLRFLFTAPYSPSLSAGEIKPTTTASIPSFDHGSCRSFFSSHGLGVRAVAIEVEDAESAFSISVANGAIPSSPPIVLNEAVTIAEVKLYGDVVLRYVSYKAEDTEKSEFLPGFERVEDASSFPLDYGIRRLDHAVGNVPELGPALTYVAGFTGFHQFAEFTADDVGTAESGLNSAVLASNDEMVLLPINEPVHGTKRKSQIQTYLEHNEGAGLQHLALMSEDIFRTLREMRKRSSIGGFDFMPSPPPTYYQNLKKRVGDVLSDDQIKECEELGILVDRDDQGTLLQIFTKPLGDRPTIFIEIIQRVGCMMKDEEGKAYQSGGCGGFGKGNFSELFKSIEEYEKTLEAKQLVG
Kind of assay: HPPD enzymatic activity by capture of released 14CO2 from 14C-hydroxyphenylpyruvate, extract of E. coli transformed with Arabidopsis HPPD gene. Format: biochemical. The method, then: E. coli transformants were treated with 0.1 mg/ml lysozyme in 50 mM potassium phosphate buffer (pH 7.3) at 30° C. for 10 min. Cells were sonicated (3 times, 5 sec each, using a VibraCell sonicator, Sonics and Material, Inc., Danbury, Conn.) and the extract was subjected to centrifugation. The supernatant was desalted on an Econo-Pac 10DG column (Bio-Rad, Richmond, Calif.) that had been equilibrated with 50 mM phosphate buffer (pH 7.3). The desalted HPPD-containing extract was used for the HPPD assay.
HPPD enzymatic activity was determined by the capture of released ^14 CO2 from ^14 C-hydroxyphenylpyruvate (Schulz et al., FEBS Letts. 318:162, 1993; Secor, Plant Physiol. 106:1429, 1994). Reactions were performed in 20 ml scintillation vials, each capped with a serum stopper through which a polypropylene well containing 50 μl of benzethonium hydroxide was suspended. Each 450 μl reaction mixture contained: 50 mM potassium phosphate buffer (pH 7.3); 50 μl of a freshly prepared 1:1 (v/v) mixture of 150 mM reduced glutathione and 3 mM dichlorophenolindophenol; 2500 units of catalase; and bacterial extract (source of HPPD). Enzyme inhibitors were added where indicated. ^14 C-hydroxyphenylpyruvate (50 μl of a 2 mM solution), prepared according to the method of Secor (1994, supra), was added to initiate the reaction, which proceeded at 30° C. for 30 min. The reaction was stopped by adding 100 μl 4 N sulfuric acid and the mixture was incubated for a further 30 min. The radioactivity trapped in benzethonium hydroxide was counted in a scintillation counter.

Assay [1] addresses partially purified enzyme extracted from maize (HPPD). As to conditions: partially purified maize enzyme (Schulz et al., 1993); read-out: calculated IC50; cited from earlier work.
In a further assay the test system is susceptible plants. The following applies: cited from earlier work.
In assay [2] the target is partially purified HPPD from barnyardgrass (Echinochloa crus-galli L.). The following applies: partially purified HPPD from barnyardgrass (Secor, 1994); cited from earlier work.
The subject of assay [3] is E. coli transformed with the Arabidopsis HPPD gene. The assay can be described thus: Brown pigment formation in E. coli transformed with the Arabidopsis HPPD gene (absorption at 450 nm). The assay is classed as cell-based. The following applies: medium supplemented with tyrosine (FIG. 2). The text has this:
B. Production of Brown Pigment and Homogentisic Acid in E. coli
No similar brown pigmentation was associated with untransformed E. coli or with E. coli transformed with the control vector.

As to `O=C(O)Cc1cc(O)ccc1O` [homogentisic acid], the “reversal of the herbicidal effect of sulcotrione” value with Lemna (Lemna treated with sulcotrione) is reported as “herbicidal effect could be abolished”. Also, the “greening of albino psdl mutant” value in the assay with albino psdl mutant is reported as “greened”.
Take `CS(=O)(=O)c1ccc(C(=O)C2C(=O)CCCC2=O)c(Cl)c1` [sulcotrione, 2-(2-chloro-4-methanesulfonylbenzoyl)-1,3-cyclohexanedione]: at Arabidopsis HPPD (at more than 1 μM sulcotrione (FIG. 4)), the “inhibition of the HPPD activity” value was “Nearly complete inhibition”. Besides, at Arabidopsis HPPD (cell extract of transformed E. coli, pH 7.3, 30° C., 30 min (FIG. 4), read-out: concentration required to cause 50% inhibition of the HPPD activity), the IC50 is 100 nM. For the same molecule, the growth inhibition result in the assay with Lemna (treatment of Lemna) was “severely inhibited growth”. In assay [1], the IC50 is 45 nM. Also, the “pigment, phytoene and tyrosine changes” value in the assay on susceptible plants (accompanying bleaching) was “loss of carotenoids and chlorophyll with an increase in phytoene and tyrosine”. For the same molecule, the bleaching result with susceptible plants is reported as “strong bleaching”. In assay [2], the Ki (usually a measure of affinity in units of concentration, obtained from inhibition or displacement) was 9.8 nM and the type of inhibition entry is “potent competitive inhibitor”.
In the case of `N[C@@H](Cc1ccc(O)cc1)C(=O)O` [tyrosine], the “formation of the brown pigment” value in assay [3] was “increased”.

B1: Arabidopsis HPPD: 4-hydroxyphenylpyruvate dioxygenase (HPPD) from Arabidopsis thaliana (AtHPPD) SEQ ID No: 1 (protein)
chain: MGHQNAAVSENQNHDDGAASSPGFKLVGFSKFVRKNPKSDKFKVKRFHHIEFWCGDATNVARRFSWGLGMRFSAKSDLSTGNMVHASYLLTSGDLRFLFTAPYSPSLSAGEIKPTTTASIPSFDHGSCRSFFSSHGLGVRAVAIEVEDAESAFSISVANGAIPSSPPIVLNEAVTIAEVKLYGDVVLRYVSYKAEDTEKSEFLPGFERVEDASSFPLDYGIRRLDHAVGNVPELGPALTYVAGFTGFHQFAEFTADDVGTAESGLNSAVLASNDEMVLLPINEPVHGTKRKSQIQTYLEHNEGAGLQHLALMSEDIFRTLREMRKRSSIGGFDFMPSPPPTYYQNLKKRVGDVLSDDQIKECEELGILVDRDDQGTLLQIFTKPLGDDRPTIFIEIIQRVGCMMKDEEGKAYQSGGCGGFGKGNFSELFKSIEEYEKTLEAKQLVG
As for B1, the HPPD activity in the assay with Arabidopsis HPPD (extract of E. coli transformed with the Arabidopsis HPPD gene, no inhibitor) is 2.7 μmol/mg protein/hr.
